{"source": "paper PMC6817585", "about": "“Simultaneous Determination of Five Alkaloids by HPLC-MS/MS Combined With Micro-SPE in Rat Plasma and Its Application to Pharmacokinetics After Oral Administration of Lotus Leaf Extract” (Frontiers in Pharmacology, 2019)", "key": {"[1]": {"assay": "Stability of analytes in rat plasma QC samples (auto-sampler, freeze-thaw, short-time, long-term)", "type": "in vitro ADME", "conditions": "rat plasma QC, n = 6; for Remain, autosampler for 24 h: autosampler 24 h; for Remain, room temperature for 24 h: room temperature 24 h; for Remain, −80°C for 1 month: −80°C 1 month", "protocol": "(§1) The stabilities (including auto-sampler, freeze–thaw cycles, and short-time and long-term stability) of all analytes were obtained by testing QC samples of four concentrations. Moreover, the stabilities for stock and working solution were assessed with mixed standard substance (100 ng·ml^−1) and the QC sample solutions of four concentration levels, respectively. These solutions were achieved by diluting stock solutions kept at 4°C for 2 weeks. For IS, the evaluated procedures of two stabilities were same as the five alkaloids."}, "[2]": {"assay": "Pharmacokinetics of five alkaloids in rat plasma after oral administration of lotus leaf extract", "type": "in vivo, Male Sprague-Dawley rats", "conditions": "oral lotus leaf extract 2.4 g·kg^−1; for MRT: read-out: MRT(0–tn); for MRT inf: read-out: MRT(0–∞); for Tmax: read-out: Tmax; for half-life: one compartment model, read-out: T1/2 (converted)", "protocol": "All analyses were performed on Agilent 1200 HPLC system (Agilent Corporation, USA) and API 3200 triple-quadrupole mass spectrometer (Concord, Ontario, Canada) in multiple-reaction monitoring (MRM) with positive ionization mode. Acetonitrile (A) and formic acid aqueous solution (B) (0.1%, v/v) is used to separate the analytes on Eclipse plus C18 column (4.6 mm × 100 mm, 1.8 µm) with a guard C18 column (2.1 mm × 12.5 mm, 5 µm). The gradient of elution is as follows: 5%–60% A at 0 to 4 min, 60%–70% A at 4 to 5 min, 70%–93% A at 5 to 7 min, 93%–94% A at 7 to 11 min, 94%–5% A at 11 to 12 min, and 5%–5% A at 12 to 17 min. The flow rate and injection volume are 0.3 ml·min^-1 and 5 µl, respectively. The main parameters of ion source including the ion spray voltage, the curtain gas, and temperature are set at 5000 V, 35 psi, and 450°C, respectively.\nThe real plasma sample (100 µl) and IS solution (10 µl) were vortex-mixed for 1 min. The sample was carried out with the SPE column (Cleanert PEP-2, 40–60 µm, 60 Å, 10 mg/1 ml; Phenomenex, Torrance, CA, USA). First, SPE columns were activated by 50% methanol in water (1 ml) and 0.1% formic acid in water (1 ml) and were used to activate the SPE column in sequence. Second, columns were washed with 200 µl methanol (20%, v/v) and eluted with acetonitrile (400 µl) after the plasma samples were added. Finally, the eluent was centrifuged for 10 min with 14,000 rpm. Then final solutions were injected into the HPLC-MS/MS and analyzed.\nThe pharmacokinetic study was conducted in accordance with the Guidelines for the Care and Use of Laboratory Animals by the US National Institutes of Health and approved by the Animal Ethics Committee of Tianjin University of Traditional Chinese Medicine (permit number: TCM-LAEC2019022, Tianjin, China),. Male Sprague-Dawley rats (240–260 g) were fed in the animal laboratory of the Tianjin University of Traditional Chinese Medicine under the standard conditions. These rats were allowed free to get standard laboratory food and water and conformed for 1 week until 12 h before experiment. These rats (n = 10) were fasted, although they were still given water for 12 h, before the oral administration of lotus leaf extract. […] The plasma samples were centrifuged in 10 min at 7000 rpm and kept at −20°C until analyzed.\nAll of the pharmacokinetic parameters were calculated by one compartment model with DAS 1.0 software (Medical College of Wannan). The maximum drug concentration (Cmax) and the time to reach Cmax (Tmax) were acquired from observed concentration–time profile for oral administration in plasma. All data were shown as mean ± SD."}, "[3]": {"assay": "Stability of stock and working solutions", "type": "physicochemical", "conditions": "for Remain, working solution: n = 6", "protocol": "as §1"}, "[4]": {"conditions": "male, Sprague-Dawley, rat, in vivo, po, 2.4 g/kg, rat plasma, n = 10, mean ± SD"}, "[5]": {"conditions": "concentration LLOQ, from stock kept at 4°C for 2 weeks"}}, "note": "Read-outs that look alike come from different tables or passages of the source.", "data": [{"compound": "COc1cc2c3c(c1OC)-c1ccccc1C[C@H]3N(C)CC2", "note": "[Nunciferine, nunciferine]", "values": [{"measurement": "Remain, autosampler for 24 h", "setting": "[1]; 2 ng/ml", "result": 89.7, "unit": "%"}, {"measurement": "Remain, autosampler for 24 h", "setting": "[1]; 100 ng/ml", "result": 98.4, "unit": "%"}, {"measurement": "Remain, autosampler for 24 h", "setting": "[1]; 500 ng/ml", "result": 85.4, "unit": "%"}, {"measurement": "Remain, autosampler for 24 h", "setting": "[1]; LLOQ", "result": 87.5, "unit": "%"}, {"measurement": "Remain, freeze thaw cycles", "setting": "[1]; 2 ng/ml", "result": 92.5, "unit": "%"}, {"measurement": "Remain, freeze thaw cycles", "setting": "[1]; 100 ng/ml", "result": 92.0, "unit": "%"}, {"measurement": "Remain, freeze thaw cycles", "setting": "[1]; 500 ng/ml", "result": 85.3, "unit": "%"}, {"measurement": "Remain, freeze thaw cycles", "setting": "[1]; LLOQ", "result": 95.9, "unit": "%"}, {"measurement": "Remain, room temperature for 24 h", "setting": "[1]; 2 ng/ml", "result": 96.5, "unit": "%"}, {"measurement": "Remain, room temperature for 24 h", "setting": "[1]; 100 ng/ml", "result": 109, "unit": "%"}, {"measurement": "Remain, room temperature for 24 h", "setting": "[1]; 500 ng/ml", "result": 89.3, "unit": "%"}, {"measurement": "Remain, room temperature for 24 h", "setting": "[1]; LLOQ", "result": 94.4, "unit": "%"}, {"measurement": "Remain, −80°C for 1 month", "setting": "[1]; 2 ng/ml", "result": 96.3, "unit": "%"}, {"measurement": "Remain, −80°C for 1 month", "setting": "[1]; 100 ng/ml", "result": 100, "unit": "%"}, {"measurement": "Remain, −80°C for 1 month", "setting": "[1]; 500 ng/ml", "result": 91.4, "unit": "%"}, {"measurement": "Remain, −80°C for 1 month", "setting": "[1]; LLOQ", "result": 99.4, "unit": "%"}, {"measurement": "MRT", "setting": "[2]; [4]", "result": "5.49 ± 0.96", "unit": "h"}, {"measurement": "MRT inf", "setting": "[2]; [4]", "result": "6.14 ± 1.47", "unit": "h"}, {"measurement": "Tmax", "setting": "[2]; [4]", "result": "3.5 ± 1.84", "unit": "h"}, {"measurement": "half-life", "setting": "[2]; [4]", "result": "6.18 ± 3.1", "unit": "h"}, {"measurement": "AUCs(0–24 h)", "setting": "[2]; rat plasma", "result": "2070 ± 919", "unit": "ng·h/mL"}, {"measurement": "AUC(0–tn)", "setting": "[2]; rat plasma, n = 10, mean ± SD", "result": "2069 ± 919", "unit": "ng·h/mL"}, {"measurement": "AUC(0–∞)", "setting": "[2]; rat plasma, n = 10, mean ± SD", "result": "2142 ± 961", "unit": "ng·h/mL"}, {"measurement": "Cmax", "setting": "[2]; rat plasma, n = 10, mean ± SD", "result": "317.58 ± 175.05", "unit": "ng/mL"}, {"measurement": "Cmax", "setting": "[2]; rat plasma, n = 10, mean ± SD, listed as nunciferine", "result": "317.6 ± 175.1", "unit": "ng/mL"}, {"measurement": "Plasma exposure (in words)", "setting": "[2]; rat", "result": "abundant plasma exposure"}, {"measurement": "Remain, working solution", "setting": "[3]; 2 ng/ml", "result": 92.5, "unit": "%"}, {"measurement": "Remain, working solution", "setting": "[3]; 100 ng/ml", "result": 98.7, "unit": "%"}, {"measurement": "Remain, working solution", "setting": "[3]; 500 ng/ml", "result": 108, "unit": "%"}, {"measurement": "Remain, working solution", "setting": "[3]; [5]", "result": 101, "unit": "%"}]}, {"compound": "O=C1c2ccccc2-c2c3c(cc4ccnc1c24)OCO3", "note": "[Liriodenine, liriodenine]", "values": [{"measurement": "Remain, autosampler for 24 h", "setting": "[1]; 1 ng/ml", "result": 86.0, "unit": "%"}, {"measurement": "Remain, autosampler for 24 h", "setting": "[1]; 40 ng/ml", "result": 105, "unit": "%"}, {"measurement": "Remain, autosampler for 24 h", "setting": "[1]; 200 ng/ml", "result": 96.8, "unit": "%"}, {"measurement": "Remain, autosampler for 24 h", "setting": "[1]; LLOQ", "result": 95.7, "unit": "%"}, {"measurement": "Remain, freeze thaw cycles", "setting": "[1]; 1 ng/ml", "result": 86.9, "unit": "%"}, {"measurement": "Remain, freeze thaw cycles", "setting": "[1]; 40 ng/ml", "result": 92.7, "unit": "%"}, {"measurement": "Remain, freeze thaw cycles", "setting": "[1]; 200 ng/ml", "result": 90.5, "unit": "%"}, {"measurement": "Remain, freeze thaw cycles", "setting": "[1]; LLOQ", "result": 91.7, "unit": "%"}, {"measurement": "Remain, room temperature for 24 h", "setting": "[1]; 1 ng/ml", "result": 87.9, "unit": "%"}, {"measurement": "Remain, room temperature for 24 h", "setting": "[1]; 40 ng/ml", "result": 96.9, "unit": "%"}, {"measurement": "Remain, room temperature for 24 h", "setting": "[1]; 200 ng/ml", "result": 102, "unit": "%"}, {"measurement": "Remain, room temperature for 24 h", "setting": "[1]; LLOQ", "result": 92.9, "unit": "%"}, {"measurement": "Remain, −80°C for 1 month", "setting": "[1]; 1 ng/ml", "result": 107, "unit": "%"}, {"measurement": "Remain, −80°C for 1 month", "setting": "[1]; 40 ng/ml", "result": 105, "unit": "%"}, {"measurement": "Remain, −80°C for 1 month", "setting": "[1]; 200 ng/ml", "result": 104, "unit": "%"}, {"measurement": "Remain, −80°C for 1 month", "setting": "[1]; LLOQ", "result": 98.9, "unit": "%"}, {"measurement": "AUC", "setting": "[2]; male, Sprague-Dawley, rat, in vivo, po, 2.4 g/kg, rat plasma, n = 10, mean ± SD, read-out: AUC(0–tn)", "result": "415 ± 200", "unit": "ng·h/mL"}, {"measurement": "AUC(0-inf)", "setting": "[2]; male, Sprague-Dawley, rat, in vivo, po, 2.4 g/kg, rat plasma, n = 10, mean ± SD, read-out: AUC(0–∞)", "result": "429 ± 199", "unit": "ng·h/mL"}, {"measurement": "Cmax", "setting": "[2]; male, Sprague-Dawley, rat, in vivo, po, 2.4 g/kg, rat plasma, n = 10, mean ± SD, read-out: Cmax", "result": "54.7 ± 31.8", "unit": "ng/mL"}, {"measurement": "MRT", "setting": "[2]; [4]", "result": "7.11 ± 1.21", "unit": "h"}, {"measurement": "MRT inf", "setting": "[2]; [4]", "result": "8.17 ± 1.86", "unit": "h"}, {"measurement": "Tmax", "setting": "[2]; [4]", "result": "5.7 ± 2.83", "unit": "h"}, {"measurement": "half-life", "setting": "[2]; [4]", "result": "3.77 ± 1.15", "unit": "h"}, {"measurement": "Absorption after orally administrating the lotus leaf extract (in words)", "setting": "[2]; rat", "result": "slow absorption"}, {"measurement": "Remain, working solution", "setting": "[3]; 1 ng/ml", "result": 96.9, "unit": "%"}, {"measurement": "Remain, working solution", "setting": "[3]; 40 ng/ml", "result": 91.7, "unit": "%"}, {"measurement": "Remain, working solution", "setting": "[3]; 200 ng/ml", "result": 112, "unit": "%"}, {"measurement": "Remain, working solution", "setting": "[3]; [5]", "result": 105, "unit": "%"}]}, {"compound": "COc1cc2c(cc1OC)-c1cc3ccc(OC)c(OC)c3c[n+]1CC2", "note": "[IS, palmatine chloride, reference compound]", "values": [{"measurement": "Remain, stock solution", "setting": "[3]; stock solution kept at 4°C for 2 weeks", "result": 114, "unit": "%"}]}]}
